Like-named read-outs stand apart in the source and are kept apart here.
Columns and labels:
[1] = tested on: carrageenan-induced rat-paw edema; experiment: carrageenan-induced rat paw edema method; format: in vivo; details: for antiinflammatory activity (in words): carrageenan-induced rat paw edema, 100 mg/kg; for % PROTECTION: Table 3, all compounds screened at 100 mg/kg body weight
Experimental: (§1) Phenyl isothiocyanate was procured from Lancaster. Methyl isothiocyanate was gift sample from Hitesh Chemicals and Drugs Pvt Ltd, Hyderabad, India. Benzoylisothiocyanate, methoxycarbonyl isothiocyanate, ethoxy carbonyl isothiocyanate, N,N-diethyl actamidine, N,N-diethyl benzamidine, N,N-diethylphenyl acetamidine and 1,4-dibromo butane 2,3-dione were prepared in our lab following the reported procedures. Carrageenin was procured from Spectrochem India limited. HIV-1 integrase assay was done at Department of Pharmaceutical Sciences, School of Pharmacy, University of Southern California, Los Angeles, USA[18]. The reported protocol was followed for carrageenin-induced rat paw edema method[19] for evaluation of antiinflammatory activity. All compounds were screened in a group of 6 animals at dose of 100 mg/kg body weight of the animal. The experimental protocol was approved by the institutional animal ethics committee, constituted as per CPCSEA, Government of India.

[2] = tested on: TNF-α release from human peripheral blood mononuclear cells; experiment: TNF-α release from human peripheral blood mononuclear cells; format: cell-based
HIV-1 integrase = target: T1, HIV-1 integrase (Human immunodeficiency virus type 1 group M subtype B, UniProt P12497); experiment: extracellular HIV-1 integrase assay (3'-processing and strand transfer); format: biochemical
T1 construct: […]; AS MEASURED IN AN EXT[…]-1 INTEGRASE ASSAY
Description: Integrase (IN) has emerged as an attractive target, because it is necessary for stable infection and homologous enzymes are lacking in the human host[11]. The function of IN is to catalyze integration of proviral DNA, resulting from the reverse transcription of viral RNA, into the host genome. This is achieved in a stepwise fashion by endonucleolytic processing of proviral DNA within a cytoplasmic preintegration complex (termed 3' P-processing or “3'-P”), followed by translocation of the complex into the nuclear compartment where integration of 3'-processed proviral DNA into host DNA occurs in a “strand transfer” (ST) reaction. […] (fig. 1B)[1112]. The presence of diketo pharmacophore in the synthesized compounds made us to screen these compounds in a HIV-1 integrase inhibitory assay.
as §1

cPLA2 = target: T2, cPLA2 (Homo sapiens, UniProt P47712); experiment: cPLA2 inhibition; format: biochemical
T2 sequence (P47712 1-749): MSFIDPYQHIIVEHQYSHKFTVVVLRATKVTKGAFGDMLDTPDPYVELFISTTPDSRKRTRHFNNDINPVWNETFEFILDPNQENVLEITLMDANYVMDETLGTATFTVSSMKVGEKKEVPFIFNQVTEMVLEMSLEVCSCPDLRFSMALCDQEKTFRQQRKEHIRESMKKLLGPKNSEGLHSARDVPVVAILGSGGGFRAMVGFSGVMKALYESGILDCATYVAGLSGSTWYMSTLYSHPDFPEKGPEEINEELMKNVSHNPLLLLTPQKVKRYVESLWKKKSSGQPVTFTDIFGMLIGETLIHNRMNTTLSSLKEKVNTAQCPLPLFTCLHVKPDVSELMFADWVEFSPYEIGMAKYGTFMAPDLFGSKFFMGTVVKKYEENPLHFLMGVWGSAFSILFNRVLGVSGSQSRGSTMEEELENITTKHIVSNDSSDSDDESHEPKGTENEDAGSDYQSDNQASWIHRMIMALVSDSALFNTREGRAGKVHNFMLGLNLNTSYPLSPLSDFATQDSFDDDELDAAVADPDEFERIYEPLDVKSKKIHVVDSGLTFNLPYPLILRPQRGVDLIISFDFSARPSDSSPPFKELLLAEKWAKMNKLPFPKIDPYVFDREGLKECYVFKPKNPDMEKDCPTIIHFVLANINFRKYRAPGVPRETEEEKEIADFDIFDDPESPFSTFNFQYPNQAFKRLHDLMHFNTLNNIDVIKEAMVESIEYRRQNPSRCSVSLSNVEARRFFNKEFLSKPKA

[3] = 100 mg/kg b.w, rat paw edema, group of 6 animals, read-out: % PROTECTION Dose 100 mg/kg b.w
[4] = Rattus norvegicus, 100 mg/kg body weight, read-out: protection in the carrageenan rat paw model
[5] = rat paw edema, group of 6 animals
[6] = 3'-processing step, read-out: 3'P inhibitory potency
[7] = strand transfer step, read-out: ST inhibitory potency

| Structure (SMILES) | inhibition in vivo at 100 mg/kg [1, 3] | inhibition in vivo at 100 mg/kg [1, 4] | also measured |
| --- | --- | --- | --- |
| CCOC(=O)Nc1nc(-c2ccccc2)c(C(=O)C(=O)c2sc(NC(=O)OCC)nc2-c2ccccc2)s1 [G-10] | 34 ± 4% | – | – |
| CCOC(=O)Nc1nc(Cc2ccccc2)c(C(=O)C(=O)c2sc(NC(=O)OCC)nc2Cc2ccccc2)s1 [G-14] | 38 ± 2% | – | – |
| CNc1nc(C)c(C(=O)C(=O)c2sc(NC)nc2C)s1 [G-1] | 14 ± 7% | – | – |
| O=C(C(=O)c1sc(Nc2ccc(Cl)cc2)nc1-c1ccccc1)c1sc(Nc2ccc(Cl)cc2)nc1-c1ccccc1 [G-8] | 66 ± 1% | > 50% | – |
| O=C(C(=O)c1sc(Nc2ccccc2)nc1-c1ccccc1)c1sc(Nc2ccccc2)nc1-c1ccccc1 [G-7] | 70 ± 0.7% | > 50% | antiinflammatory activity (in words) [1]: good antiinflammatory activity |
| COC(=O)Nc1nc(C)c(C(=O)C(=O)c2sc(NC(=O)OC)nc2C)s1 [G-4] | 40 ± 2% | – | – |
| COC(=O)Nc1nc(Cc2ccccc2)c(C(=O)C(=O)c2sc(NC(=O)OC)nc2Cc2ccccc2)s1 [G-13] | 35 ± 2.5% | – | – |
| O=C(C(=O)c1sc(N2CCCCC2)nc1-c1ccccc1)c1sc(N2CCCCC2)nc1-c1ccccc1 [G-16] | – | > 50% | % PROTECTION [1, 5]: 65±0.8% |
| O=C(C(=O)c1sc(N2CCOCC2)nc1-c1ccccc1)c1sc(N2CCOCC2)nc1-c1ccccc1 [G-17] | – | > 50% | effect on TNF-α release [2]: did not have any effect; % PROTECTION [1, 5]: 81±0.5%; IC50 (HIV-1 integrase; [6]): > 500 µM; IC50 (HIV-1 integrase; [7]): 109 µM |
| O=C(C(=O)c1sc(N2CCN(c3ccccc3)CC2)nc1-c1ccccc1)c1sc(N2CCN(c3ccccc3)CC2)nc1-c1ccccc1 [G-20] | – | > 50% | % PROTECTION [1, 5]: 55±4%; IC50 (HIV-1 integrase; [6]): 122 µM; IC50 (HIV-1 integrase; [7]): 87 µM |
| O=C(Nc1nc(Cc2ccccc2)c(C(=O)C(=O)c2sc(NC(=O)c3ccccc3)nc2Cc2ccccc2)s1)c1ccccc1 [G-15] | 47 ± 2.3% | – | – |
| Cc1nc(Nc2ccc(Cl)cc2)sc1C(=O)C(=O)c1sc(Nc2ccc(Cl)cc2)nc1C [G-3] | 73 ± 0.3% | – | IC50 (HIV-1 integrase; [6]): 132 µM; IC50 (HIV-1 integrase; [7]): 397 µM |
| O=C(C(=O)c1sc(N2CCN(Cc3ccccc3)CC2)nc1-c1ccccc1)c1sc(N2CCN(Cc3ccccc3)CC2)nc1-c1ccccc1 [G-21] | – | > 50% | % PROTECTION [1, 5]: 85±0.3% |
| O=C(C(=O)c1sc(Nc2ccccc2)nc1Cc1ccccc1)c1sc(Nc2ccccc2)nc1Cc1ccccc1 [G-11] | 23 ± 2% | – | – |
| CCN1CCN(c2nc(-c3ccccc3)c(C(=O)C(=O)c3sc(N4CCN(CC)CC4)nc3-c3ccccc3)s2)CC1 [G-19] | – | > 50% | effect on TNF-α release [2]: did not have any effect; % PROTECTION [1, 5]: 72±0.5% |
| CN1CCN(c2nc(-c3ccccc3)c(C(=O)C(=O)c3sc(N4CCN(C)CC4)nc3-c3ccccc3)s2)CC1 [G-18] | – | > 50% | % PROTECTION [1, 5]: 60±0.5% |
| O=C(C(=O)c1sc(Nc2ccc(Cl)cc2)nc1Cc1ccccc1)c1sc(Nc2ccc(Cl)cc2)nc1Cc1ccccc1 [G-12] | 72 ± 1% | > 50% | antiinflammatory activity (in words) [1]: good antiinflammatory activity |
| Cc1nc(Nc2ccccc2)sc1C(=O)C(=O)c1sc(Nc2ccccc2)nc1C [G-2] | 23 ± 8% | – | – |
| CCOC(=O)Nc1nc(C)c(C(=O)C(=O)c2sc(NC(=O)OCC)nc2C)s1 [G-5] | 33 ± 0.9% | – | – |
| COC(=O)Nc1nc(-c2ccccc2)c(C(=O)C(=O)c2sc(NC(=O)OC)nc2-c2ccccc2)s1 [G-9] | 26 ± 3% | – | – |
| O=C(Nc1nc(-c2ccccc2)c(C(=O)C(=O)c2sc(NC(=O)c3ccccc3)nc2-c2ccccc2)s1)c1ccccc1 [G-6] | 74 ± 0.5% | > 50% | effect on TNF-α release [2]: did not have any effect; melting point: 234 to 236 °C; cPLA2 inhibition (in words) (cPLA2): weakly inhibited; IC50 (HIV-1 integrase; [6]): > 500 µM; IC50 (HIV-1 integrase; [7]): 277 µM |
